Assays:
[1] = biological target: Cytoplasmic tyrosine-protein kinase BMX (Homo sapiens) (UniProt P51813); experiment: Inhibition of recombinant full length human His-tagged BMX expressed in baculovirus expression system at 0.1 uM using tyrosine-1 peptide as substrate incubated for 60 mins by Z'-LYTE assay relative to control
[2] = biological target: Cyclin-Y/Cyclin-dependent kinase 16 (Homo sapiens) (UniProt Q00536+Q8ND76); experiment: Inhibition of tracer 236 binding to recombinant human GST-tagged CDK16/cyclin Y catalytic domain (CDK16: 108 to end, Cyclin Y: 2 to end) expressed by baculovirus in Sf9 insect cells expression system at 0.1 uM measured after 60 mins by Lanthascreen assay relative to control
[3] = biological target: CDK9/cyclin T1 (Homo sapiens) (UniProt O60563+P50750); experiment: Inhibition of recombinant full length human His-tagged CDK9/CyclinT1 expressed in baculovirus expression system at 0.1 uM using CDK7/9tide peptide as substrate incubated for 60 mins by Adapta assay relative to control
[4] = biological target: Casein kinase I isoform delta (Homo sapiens) (UniProt P48730); experiment: Inhibition of recombinant full length human GST-tagged CK1delta expressed in baculovirus expression system at 0.1 uM using serine/threonine-11 peptide as substrate incubated for 60 mins by Z'-LYTE assay relative to control
[5] = biological target: Casein kinase I isoform gamma-1 (Homo sapiens) (UniProt Q9HCP0); experiment: Inhibition of recombinant full length human GST-tagged CK1 gamma 1 expressed in baculovirus expression system at 0.1 uM using serine/threonine-5 peptide as substrate incubated for 60 mins by Z'-LYTE assay relative to control
[6] = biological target: Calcium/calmodulin-dependent protein kinase type II subunit beta (Homo sapiens) (UniProt Q13554); experiment: Inhibition of recombinant full length human His-tagged CAMK2beta expressed in baculovirus expression system at 0.1 uM using serine/threonine-17 peptide as substrate incubated for 60 mins by Z'-LYTE assay relative to control
[7] = biological target: Ephrin type-A receptor 3 (Homo sapiens) (UniProt P29320); experiment: Inhibition of tracer 236 binding to recombinant human His-tagged EPHA3 (569 to 976 residues) expressed in baculovirus expression system at 0.1 uM measured after 60 mins by Lanthascreen assay relative to control
[8] = biological target: Ephrin type-B receptor 3 (Homo sapiens) (UniProt P54753); experiment: Inhibition of recombinant human GST-tagged EPHB3 catalytic domain (623 to 907 residues) expressed in baculovirus expression system at 0.1 uM using tyrosine-2 peptide as substrate incubated for 60 mins by Z'-LYTE assay relative to control
Chain of Ephrin type-B receptor 3 (Homo sapiens) (P54753 whole entry, the tested form may be a part): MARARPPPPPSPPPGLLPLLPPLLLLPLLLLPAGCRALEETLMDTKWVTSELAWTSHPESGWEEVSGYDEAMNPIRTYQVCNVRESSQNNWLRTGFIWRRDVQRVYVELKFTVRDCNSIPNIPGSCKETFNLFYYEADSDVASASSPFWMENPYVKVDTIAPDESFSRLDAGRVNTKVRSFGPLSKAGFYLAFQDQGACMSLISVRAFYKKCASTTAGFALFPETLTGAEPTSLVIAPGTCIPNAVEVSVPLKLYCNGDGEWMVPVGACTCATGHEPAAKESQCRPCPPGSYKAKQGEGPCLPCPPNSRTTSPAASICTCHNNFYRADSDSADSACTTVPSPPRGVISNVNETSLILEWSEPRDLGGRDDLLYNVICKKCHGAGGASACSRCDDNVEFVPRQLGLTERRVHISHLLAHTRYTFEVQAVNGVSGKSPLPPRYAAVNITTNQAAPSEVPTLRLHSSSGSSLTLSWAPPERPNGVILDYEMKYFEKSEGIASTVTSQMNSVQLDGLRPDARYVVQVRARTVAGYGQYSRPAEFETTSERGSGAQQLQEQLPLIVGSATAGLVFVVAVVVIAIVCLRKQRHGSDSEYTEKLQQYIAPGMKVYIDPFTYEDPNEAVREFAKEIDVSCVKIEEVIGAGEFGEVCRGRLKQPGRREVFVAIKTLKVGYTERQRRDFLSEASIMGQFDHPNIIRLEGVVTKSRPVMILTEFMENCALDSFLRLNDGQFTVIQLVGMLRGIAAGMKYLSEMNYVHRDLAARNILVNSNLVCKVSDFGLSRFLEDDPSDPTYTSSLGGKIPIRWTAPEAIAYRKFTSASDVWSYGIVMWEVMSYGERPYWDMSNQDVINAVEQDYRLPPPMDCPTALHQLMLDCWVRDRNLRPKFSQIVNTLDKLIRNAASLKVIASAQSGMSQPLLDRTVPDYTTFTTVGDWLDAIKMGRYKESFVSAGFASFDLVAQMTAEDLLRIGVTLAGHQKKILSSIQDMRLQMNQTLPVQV

[9] = biological target: Fibroblast growth factor receptor 3 (Homo sapiens) (UniProt P22607); experiment: Inhibition of recombinant human His-tagged FGFR3 catalytic domain (399 to 806 residues) expressed in baculovirus expression system at 0.1 uM using tyrosine-4 peptide as substrate incubated for 60 mins by Z'-LYTE assay relative to control
[10] = biological target: Tyrosine-protein kinase FRK (Homo sapiens) (UniProt P42685); experiment: Inhibition of recombinant full length human GST-tagged FRK expressed in baculovirus expression system at 0.1 uM using tyrosine-1 peptide as substrate incubated for 60 mins by Z'-LYTE assay relative to control
Chain of Tyrosine-protein kinase FRK (Homo sapiens) (P42685 whole entry, the tested form may be a part): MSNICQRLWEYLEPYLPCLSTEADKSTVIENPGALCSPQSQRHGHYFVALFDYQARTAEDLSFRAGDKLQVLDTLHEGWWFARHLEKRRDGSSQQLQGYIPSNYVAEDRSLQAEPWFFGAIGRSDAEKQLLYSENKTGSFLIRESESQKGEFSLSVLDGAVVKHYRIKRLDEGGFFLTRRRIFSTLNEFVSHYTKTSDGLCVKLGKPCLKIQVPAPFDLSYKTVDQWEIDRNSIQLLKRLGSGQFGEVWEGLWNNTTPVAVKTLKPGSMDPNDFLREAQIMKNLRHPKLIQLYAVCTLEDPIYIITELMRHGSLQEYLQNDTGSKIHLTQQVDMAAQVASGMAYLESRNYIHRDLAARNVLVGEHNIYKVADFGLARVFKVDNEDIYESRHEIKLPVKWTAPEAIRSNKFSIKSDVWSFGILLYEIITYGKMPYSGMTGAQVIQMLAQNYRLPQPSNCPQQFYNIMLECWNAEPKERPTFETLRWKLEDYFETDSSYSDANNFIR

[11] = biological target: Interleukin-1 receptor-associated kinase 1 (Homo sapiens) (UniProt P51617); experiment: Inhibition of recombinant human GST-tagged IRAK1 catalytic domain (194 to 712 residues) expressed in baculovirus expression system at 0.1 uM using Histone H3 (1-20) peptide as substrate incubated for 60 mins by Adapta assay relative to control
Chain of Interleukin-1 receptor-associated kinase 1 (Homo sapiens) (P51617 whole entry, looked up, the tested form may be a part): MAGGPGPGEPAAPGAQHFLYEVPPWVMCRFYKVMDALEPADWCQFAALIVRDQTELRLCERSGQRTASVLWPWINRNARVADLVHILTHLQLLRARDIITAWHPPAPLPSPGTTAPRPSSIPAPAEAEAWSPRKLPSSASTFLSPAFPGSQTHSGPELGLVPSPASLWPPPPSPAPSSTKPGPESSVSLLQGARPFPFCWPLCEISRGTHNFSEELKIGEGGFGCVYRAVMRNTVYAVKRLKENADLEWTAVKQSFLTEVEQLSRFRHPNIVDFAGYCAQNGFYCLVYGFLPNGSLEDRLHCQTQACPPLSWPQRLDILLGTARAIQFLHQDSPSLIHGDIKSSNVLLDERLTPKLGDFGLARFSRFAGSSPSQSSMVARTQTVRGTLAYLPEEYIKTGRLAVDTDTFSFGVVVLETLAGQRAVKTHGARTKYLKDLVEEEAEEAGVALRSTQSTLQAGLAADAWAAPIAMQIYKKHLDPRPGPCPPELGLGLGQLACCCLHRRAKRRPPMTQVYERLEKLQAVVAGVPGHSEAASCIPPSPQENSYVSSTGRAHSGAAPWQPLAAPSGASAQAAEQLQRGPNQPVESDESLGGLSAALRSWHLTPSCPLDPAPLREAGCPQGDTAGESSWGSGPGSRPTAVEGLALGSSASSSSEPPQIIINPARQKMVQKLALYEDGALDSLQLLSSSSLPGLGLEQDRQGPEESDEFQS

[12] = biological target: Mitogen-activated protein kinase kinase kinase 10 (Homo sapiens) (UniProt Q02779); experiment: Inhibition of tracer 236 binding to recombinant full length human GST-tagged MLK2 expressed in baculovirus expression system at 0.1 uM measured after 60 mins by Lanthascreen assay
[13] = biological target: Hepatocyte growth factor receptor (Homo sapiens) (UniProt P08581); experiment: Inhibition of recombinant human His-tagged MET (956 to 1390 residues) expressed in baculovirus expression system at 0.1 uM using tyrosine-6 peptide as substrate incubated for 60 mins by Z'-LYTE assay relative to control
[14] = biological target: Misshapen-like kinase 1 (Homo sapiens) (UniProt Q8N4C8); experiment: Inhibition of recombinant human GST-tagged MINK1 catalytic domain (1 to 320 residues) expressed in baculovirus expression system at 0.1 uM using serine/threonine-7 peptide as substrate incubated for 60 mins by Z'-LYTE assay relative to control
[15] = biological target: Serine/threonine-protein kinase PAK 6 (Homo sapiens) (UniProt Q9NQU5); experiment: Inhibition of recombinant full length human His-tagged PAK6 expressed in baculovirus expression system at 0.1 uM using serine/threonine-20 peptide as substrate incubated for 60 mins by Z'-LYTE assay relative to control
[16] = biological target: PAS domain-containing serine/threonine-protein kinase (Homo sapiens) (UniProt Q96RG2); experiment: Inhibition of recombinant human GST-tagged PASK catalytic domain (879 to 1323 residues) expressed in baculovirus expression system at 0.1 uM using serine/threonine-7 peptide as substrate incubated for 60 mins by Z'-LYTE assay relative to control
[17] = biological target: Phosphatidylinositol 4,5-bisphosphate 3-kinase catalytic subunit gamma isoform (Homo sapiens) (UniProt P48736); experiment: Inhibition of recombinant human GST-tagged PI3Kgamma catalytic domain (468 to 1203 residues) expressed in insect expression system at 0.1 uM using PI Lipid Kinase as substrate incubated for 60 mins by Adapta assay relative to control
[18] = biological target: Protein kinase C beta type (Homo sapiens) (UniProt P05771); experiment: Inhibition of recombinant full length human GST-tagged PKCbeta1 expressed in insect expression system at 0.1 uM using serine/threonine-7 peptide as substrate incubated for 60 mins by Z'-LYTE assay relative to control
Chain of Protein kinase C beta type (Homo sapiens) (P05771 2-671 limits assumed): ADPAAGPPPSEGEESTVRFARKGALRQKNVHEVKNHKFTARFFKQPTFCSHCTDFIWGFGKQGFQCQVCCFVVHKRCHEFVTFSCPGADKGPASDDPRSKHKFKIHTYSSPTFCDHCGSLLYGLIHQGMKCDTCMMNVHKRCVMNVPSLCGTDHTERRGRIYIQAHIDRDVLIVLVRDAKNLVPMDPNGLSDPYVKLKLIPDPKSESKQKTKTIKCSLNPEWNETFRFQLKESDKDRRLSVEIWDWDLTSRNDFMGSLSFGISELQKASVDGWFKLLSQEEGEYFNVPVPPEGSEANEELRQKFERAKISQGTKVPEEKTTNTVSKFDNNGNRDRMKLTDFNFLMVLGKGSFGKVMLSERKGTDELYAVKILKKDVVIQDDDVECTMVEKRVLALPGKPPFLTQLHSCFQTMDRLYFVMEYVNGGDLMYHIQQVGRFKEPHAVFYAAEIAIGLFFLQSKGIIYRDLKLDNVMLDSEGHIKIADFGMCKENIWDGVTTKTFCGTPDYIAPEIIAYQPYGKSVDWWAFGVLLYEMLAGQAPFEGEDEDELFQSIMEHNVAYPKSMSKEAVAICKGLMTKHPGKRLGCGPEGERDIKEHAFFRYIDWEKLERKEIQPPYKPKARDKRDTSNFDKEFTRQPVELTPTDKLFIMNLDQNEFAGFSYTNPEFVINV

[19] = biological target: Phosphorylase b kinase gamma catalytic chain, skeletal muscle/heart isoform (Homo sapiens) (UniProt Q16816); experiment: Inhibition of recombinant full length human GST-tagged PHKG1 expressed in baculovirus expression system at 0.1 uM using serine/threonine-7 peptide as substrate incubated for 60 mins by Z'-LYTE assay relative to control
Chain of Phosphorylase b kinase gamma catalytic chain, skeletal muscle/heart isoform (Homo sapiens) (Q16816 whole entry, looked up, the tested form may be a part, canonical isoform): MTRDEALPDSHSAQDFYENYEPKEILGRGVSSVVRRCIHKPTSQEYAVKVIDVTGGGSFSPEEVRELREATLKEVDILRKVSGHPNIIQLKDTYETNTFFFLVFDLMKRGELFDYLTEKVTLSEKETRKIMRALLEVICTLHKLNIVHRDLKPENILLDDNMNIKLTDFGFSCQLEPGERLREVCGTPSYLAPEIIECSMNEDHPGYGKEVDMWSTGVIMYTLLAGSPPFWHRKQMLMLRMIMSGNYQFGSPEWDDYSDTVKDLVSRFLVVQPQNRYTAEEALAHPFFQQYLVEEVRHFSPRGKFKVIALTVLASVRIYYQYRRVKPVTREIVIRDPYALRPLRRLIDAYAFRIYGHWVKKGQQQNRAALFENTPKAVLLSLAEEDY

[20] = system: RAF proto-oncogene serine/threonine-protein kinase (Homo sapiens), P04049 [Y340D,Y341D]; experiment: Inhibition of recombinant human GST-tagged RAF1 Y340D Y341D mutant catalytic domain (306 to 648 residues) expressed in baculovirus expression system at 0.1 uM using serine/threonine-3 peptide as substrate incubated for 60 mins by Z'-LYTE assay relative to control
Chain of RAF proto-oncogene serine/threonine-protein kinase (Homo sapiens), P04049 [Y340D,Y341D] (P04049 whole entry Y340D/Y341D, the tested form may be a part): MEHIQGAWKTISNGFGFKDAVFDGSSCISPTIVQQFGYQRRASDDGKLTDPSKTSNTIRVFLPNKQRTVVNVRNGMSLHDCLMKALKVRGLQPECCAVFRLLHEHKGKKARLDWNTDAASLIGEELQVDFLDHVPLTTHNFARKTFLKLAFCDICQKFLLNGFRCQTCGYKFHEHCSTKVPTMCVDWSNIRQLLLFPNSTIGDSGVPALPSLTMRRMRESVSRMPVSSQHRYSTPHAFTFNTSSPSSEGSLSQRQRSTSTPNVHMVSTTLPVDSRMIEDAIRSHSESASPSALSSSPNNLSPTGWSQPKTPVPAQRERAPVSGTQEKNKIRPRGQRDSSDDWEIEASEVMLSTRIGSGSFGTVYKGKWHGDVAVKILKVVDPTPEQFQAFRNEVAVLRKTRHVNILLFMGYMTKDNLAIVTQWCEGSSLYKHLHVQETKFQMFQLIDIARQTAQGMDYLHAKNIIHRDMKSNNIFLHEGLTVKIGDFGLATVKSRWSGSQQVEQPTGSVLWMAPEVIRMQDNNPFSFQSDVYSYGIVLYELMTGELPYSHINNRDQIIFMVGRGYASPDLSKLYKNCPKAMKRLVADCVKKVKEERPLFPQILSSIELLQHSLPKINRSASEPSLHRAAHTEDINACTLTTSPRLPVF

[21] = biological target: Serine/threonine-protein kinase Sgk2 (Homo sapiens) (UniProt Q9HBY8); experiment: Inhibition of recombinant human GST-tagged SGK2 catalytic domain (54 to 427 residues) expressed in baculovirus expression system at 0.1 uM using serine/threonine-6 peptide as substrate incubated for 60 mins by Z'-LYTE assay relative to control
Chain of Serine/threonine-protein kinase Sgk2 (Homo sapiens) (Q9HBY8 whole entry, the tested form may be a part): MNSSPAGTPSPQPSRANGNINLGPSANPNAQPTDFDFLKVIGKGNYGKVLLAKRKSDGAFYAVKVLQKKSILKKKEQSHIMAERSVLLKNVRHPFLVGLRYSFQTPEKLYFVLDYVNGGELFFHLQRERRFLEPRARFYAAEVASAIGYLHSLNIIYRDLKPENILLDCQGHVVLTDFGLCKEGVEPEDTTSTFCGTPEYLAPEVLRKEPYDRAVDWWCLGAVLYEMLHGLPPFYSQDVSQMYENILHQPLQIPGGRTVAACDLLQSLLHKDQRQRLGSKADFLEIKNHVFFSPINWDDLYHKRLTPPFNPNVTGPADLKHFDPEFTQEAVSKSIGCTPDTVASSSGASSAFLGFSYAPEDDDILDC

[22] = biological target: Tyrosine-protein kinase ZAP-70 (Homo sapiens) (UniProt P43403); experiment: Inhibition of recombinant full length human His-tagged ZAP70 expressed in baculovirus expression system at 0.1 uM using tyrosine-7 peptide as substrate incubated for 60 mins by Z'-LYTE assay relative to control
Chain of Tyrosine-protein kinase ZAP-70 (Homo sapiens) (P43403 whole entry): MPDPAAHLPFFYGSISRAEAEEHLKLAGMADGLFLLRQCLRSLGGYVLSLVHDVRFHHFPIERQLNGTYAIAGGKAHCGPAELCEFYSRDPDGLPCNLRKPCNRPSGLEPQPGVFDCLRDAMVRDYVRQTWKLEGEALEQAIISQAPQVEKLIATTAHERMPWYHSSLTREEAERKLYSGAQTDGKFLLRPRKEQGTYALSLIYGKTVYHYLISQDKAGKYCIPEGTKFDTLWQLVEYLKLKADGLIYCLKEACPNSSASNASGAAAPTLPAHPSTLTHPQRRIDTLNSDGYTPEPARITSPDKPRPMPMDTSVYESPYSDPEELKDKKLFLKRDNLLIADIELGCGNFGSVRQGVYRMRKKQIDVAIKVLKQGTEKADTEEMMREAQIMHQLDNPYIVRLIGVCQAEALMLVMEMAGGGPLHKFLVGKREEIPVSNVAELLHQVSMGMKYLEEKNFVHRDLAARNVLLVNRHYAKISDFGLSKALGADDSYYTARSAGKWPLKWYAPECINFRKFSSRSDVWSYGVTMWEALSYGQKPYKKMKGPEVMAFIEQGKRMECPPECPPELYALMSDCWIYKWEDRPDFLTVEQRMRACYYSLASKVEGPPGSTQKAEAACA

Row | Structure (SMILES) | inhibition [1] | inhibition [2] | inhibition [3] | inhibition [4] | inhibition [5] | inhibition [6] | inhibition [7] | inhibition [8] | inhibition [9] | inhibition [10] | inhibition [11] | inhibition [12] | inhibition [13] | inhibition [14] | inhibition [15] | inhibition [16] | inhibition [17] | inhibition [18] | inhibition [19] | inhibition [20] | further results
1 | CCN1CCN(Cc2ccc(Nc3ncc(F)c(-c4cc(F)c5nc(C)n(C(C)C)c5c4)n3)nc2)CC1 [ABEMACICLIB] | 5.5% | 86.5% | 92.5% | 10.5% | -0.5% | 88% | 2.1% | -0.5% | 0% | 5.5% | 99.8% | 10.6% | 32.5% | 79.5% | 1% | 73% | -6.3% | 38% | 62% | 0% | inhibition [21]: 36.5%; inhibition [22]: -0.5%
2 | CCN1CC2(C1)CN(c1ccc(Nc3ncc(F)c(-c4cnn5c4[C@H](C)CCCC5)n3)nc1)C2 | -2% | 79% | 59.5% | 5% | 1.5% | 20.5% | 6.5% | 1% | 1.5% | 1.5% | 48.5% | 18% | 10% | 27.5% | 3% | 14.5% | 2% | 4.5% | 64% | -0.5% | inhibition [21]: 27.5%; inhibition [22]: 7%

Reference: ChEMBL document CHEMBL4385643, “Design of a brain-penetrant CDK4/6 inhibitor for glioblastoma” (Bioorg Med Chem Lett, 2019)
